Measured values published in article PMC12410356 (International Journal for Parasitology: Drugs and Drug …, 2025).

Legend:
[1] = test system: E. multilocularis metacestode vesicles; assay: Phosphoglucose isomerase (PGI) release assay (damage-marker release) on metacestode vesicles; assay type: cell-based, Echinococcus multilocularis; conditions: 10 μM; for PGI d5 (relative PGI release): 5 days; for PGI d12 (relative PGI release): 12 days
[2] = test system: E. multilocularis metacestode vesicles; assay: Metacestode vesicle viability assay (ATP, CellTiter-Glo); assay type: cell-based, Echinococcus multilocularis
Experimental: Viability was assessed after 12 days using the same metacestode vesicles as for the PGI release assay. Triton X-100 was added to each well to a final concentration of 0.1 %. Subsequently the metacestode vesicles were broken mechanically and 50 μL of the supernatant was mixed with 50 μL of CellTiter-Glo® buffer (Promega, Dübendorf, Switzerland). Measurements were performed on a HIDEX Sense microplate reader.

[3] = confirmation screen, triplicates, mean
[4] = overview screen, singlets, relative to 0.1 % Triton X-100, DMSO subtracted
[5] = confirmation screen, 10 μM, triplicates, mean, 12 days
[6] = overview screen, 10 μM, singlets, 12 days, relative to DMSO control

Nc1nc(=O)c(Br)c(-c2ccccc2)[nH]1 [MMV690540]
PGI d5 (relative PGI release) [1, 3]: 0.19%
PGI d12 (relative PGI release) [1, 3]: 1.01%
PGI d5 (relative PGI release) [1, 4]: 2.1344%
PGI d12 (relative PGI release) [1, 4]: 38.5177%
Viability d12 (relative viability) [2, 5]: 98.22%
Viability d12 (relative viability) [2, 6]: 20.6612%

O[C@@](Cn1cnnn1)(c1ccc(F)cc1F)C(F)(F)c1ccc(-c2ccc(OCC(F)(F)F)cc2)cn1 [MMV1634386]
PGI d5 (relative PGI release) [1, 4]: -2.798%
PGI d12 (relative PGI release) [1, 4]: -27.2627%
Viability d12 (relative viability) [2, 6]: 107.711%

O=C(Nc1nnc(-c2ccccc2)o1)c1ccc(F)cc1 [MMV1578578]
PGI d5 (relative PGI release) [1, 4]: -0.5299%
PGI d12 (relative PGI release) [1, 4]: 45.2443%
Viability d12 (relative viability) [2, 6]: 33.8998%

C[C@H]1CC[C@]2(NC1)O[C@H]1C[C@H]3[C@@H]4CC[C@H]5C[C@@H](O)CC[C@]5(C)[C@H]4CC[C@]3(C)[C@H]1[C@@H]2C.Cl [MMV003069]
PGI d5 (relative PGI release) [1, 4]: -0.8739%
PGI d12 (relative PGI release) [1, 4]: -0.2652%
Viability d12 (relative viability) [2, 6]: 243.729%

Cc1ncc([N+](=O)[O-])n1CC(O)CN1CCOCC1 (stereo not drawn) [MMV1613562]
PGI d5 (relative PGI release) [1, 4]: 0.195%
PGI d12 (relative PGI release) [1, 4]: -6.037%
Viability d12 (relative viability) [2, 6]: 97.4765%

O=C(O)COc1cccc2c1CC[C@](O)(COC(=O)N(c1ccccc1)c1ccccc1)C2 [MMV1782352]
PGI d5 (relative PGI release) [1, 4]: -0.08001%
PGI d12 (relative PGI release) [1, 4]: -0.2818%
Viability d12 (relative viability) [2, 6]: 68.1339%

O=c1cc(OCc2ccccc2)ccn1Cc1ccccc1 [MMV1579775]
PGI d5 (relative PGI release) [1, 4]: -1.928%
PGI d12 (relative PGI release) [1, 4]: -10.779%
Viability d12 (relative viability) [2, 6]: 63.3743%

Oc1ccc2[nH]c(-c3ccccc3)nc2c1 [MMV292173]
PGI d5 (relative PGI release) [1, 4]: -3.6461%
PGI d12 (relative PGI release) [1, 4]: 2.293%
Viability d12 (relative viability) [2, 6]: 56.2358%

NC(=O)c1ccccc1NC(=O)c1ccc(C(=O)Nc2ccccc2C(N)=O)cc1 [MMV508427]
PGI d5 (relative PGI release) [1, 4]: -1.548%
PGI d12 (relative PGI release) [1, 4]: -12.1939%
Viability d12 (relative viability) [2, 6]: 83.3301%

CCCCCCCCC(CP(=O)(O)C(C)N)C(=O)O (stereo not drawn) [MMV1582487]
PGI d5 (relative PGI release) [1, 4]: -0.4977%
PGI d12 (relative PGI release) [1, 4]: -10.5393%
Viability d12 (relative viability) [2, 6]: 34.1503%

CSC[C@H]1CN(Cc2c[nH]c3c(N)ncnc23)C[C@@H]1O [MMV1578565]
PGI d5 (relative PGI release) [1, 4]: -1.805%
PGI d12 (relative PGI release) [1, 4]: -12.574%
Viability d12 (relative viability) [2, 6]: 59.0324%

O=C(Nc1cccc(C2=NCCN2)c1)c1ccc(-c2ccc(C(=O)Nc3cccc(C4=NCCN4)c3)cc2)cc1 [MMV1580853]
PGI d5 (relative PGI release) [1, 3]: -0.08%
PGI d12 (relative PGI release) [1, 3]: 7.37%
PGI d5 (relative PGI release) [1, 4]: 0.237%
PGI d12 (relative PGI release) [1, 4]: 89.997%
Viability d12 (relative viability) [2, 5]: 134.53%
Viability d12 (relative viability) [2, 6]: 3.841%

CC(C)Nc1nc2cc(Cl)c(Cl)cc2n1[C@H]1O[C@@H](CO)[C@H](O)[C@@H]1O [MMV1593521]
PGI d5 (relative PGI release) [1, 4]: 1.092%
PGI d12 (relative PGI release) [1, 4]: -0.5297%
Viability d12 (relative viability) [2, 6]: 80.7959%

Nc1nnc(-c2ccc(Cl)cc2)s1 [MMV046261]
PGI d5 (relative PGI release) [1, 4]: 0.5147%
PGI d12 (relative PGI release) [1, 4]: 3.499%
Viability d12 (relative viability) [2, 6]: 11.5226%

O=C(N[C@H](Cc1cccc2ccccc12)C(=O)NCCc1c[nH]cn1)C1Cc2ccccc2C1 [MMV1782109]
PGI d5 (relative PGI release) [1, 4]: -2.59%
PGI d12 (relative PGI release) [1, 4]: -25.3398%
Viability d12 (relative viability) [2, 6]: 29.391%

NS(=O)(=O)c1ccc(NC(=O)NC(c2ccccc2)c2ccccc2)cc1 [MMV1579776]
PGI d5 (relative PGI release) [1, 3]: -0.15%
PGI d12 (relative PGI release) [1, 3]: -0.30%
PGI d5 (relative PGI release) [1, 4]: -0.6102%
PGI d12 (relative PGI release) [1, 4]: 61.5508%
Viability d12 (relative viability) [2, 5]: 80.00%
Viability d12 (relative viability) [2, 6]: 8.5167%

Cc1c[nH]c(=O)nc1NCc1ccccc1 [MMV1582489]
PGI d5 (relative PGI release) [1, 4]: -0.6323%
PGI d12 (relative PGI release) [1, 4]: -1.8719%
Viability d12 (relative viability) [2, 6]: 140.789%

COc1cc2c(O)c3c(c(-c4ccc5c(c4)OCO5)c2cc1OC)C(=O)OC3 [MMV102270]
PGI d5 (relative PGI release) [1, 4]: -1.791%
PGI d12 (relative PGI release) [1, 4]: 18.1463%
Viability d12 (relative viability) [2, 6]: 116.78%

CS(=O)(=O)c1ccc(Oc2ccc(Cl)cc2)cc1 [MMV1634404]
PGI d5 (relative PGI release) [1, 4]: -0.3308%
PGI d12 (relative PGI release) [1, 4]: -18.6197%
Viability d12 (relative viability) [2, 6]: 57.7676%

Nc1nc(-c2ccccc2)nc2[nH]nc(Nc3ccc(C(F)(F)F)cc3)c12 [MMV1633968]
PGI d5 (relative PGI release) [1, 4]: 0.2239%
PGI d12 (relative PGI release) [1, 4]: 0.02121%
Viability d12 (relative viability) [2, 6]: 133.404%

O=S(=O)(Nc1ccccc1)c1ccc(NC(=S)Nc2ccccc2)cc1 [MMV1578562]
PGI d5 (relative PGI release) [1, 4]: -3.292%
PGI d12 (relative PGI release) [1, 4]: -3.243%
Viability d12 (relative viability) [2, 6]: 118.128%

Cc1ccn2c(C(=O)NCc3ccccc3)c(C)nc2c1 [MMV1579847]
PGI d5 (relative PGI release) [1, 4]: -1.164%
PGI d12 (relative PGI release) [1, 4]: -2.526%
Viability d12 (relative viability) [2, 6]: 87.8278%

c1ccc(Cn2c(-c3ccccn3)nc3ccccc32)cc1 [MMV1578886]
PGI d5 (relative PGI release) [1, 3]: -0.18%
PGI d12 (relative PGI release) [1, 3]: -0.24%
PGI d5 (relative PGI release) [1, 4]: -1.473%
PGI d12 (relative PGI release) [1, 4]: 58.1597%
Viability d12 (relative viability) [2, 5]: 94.29%
Viability d12 (relative viability) [2, 6]: 16.9499%

CCCCc1ccc(S(=O)(=O)Nc2cc(C)on2)cc1 [MMV1782108]
PGI d5 (relative PGI release) [1, 4]: -2.561%
PGI d12 (relative PGI release) [1, 4]: -24.5808%
Viability d12 (relative viability) [2, 6]: 50.3487%

O=C(Nc1nnc(-c2ccc(Cl)cc2)o1)c1nc2ccccc2s1 [MMV102833]
PGI d5 (relative PGI release) [1, 4]: 3.0788%
PGI d12 (relative PGI release) [1, 4]: 1.422%
Viability d12 (relative viability) [2, 6]: 141.762%

Nc1nc(Nc2ccc3nc(-c4ccc(F)cc4)cc(N)c3c2)cc(-c2ccccc2)n1 [MMV1593541]
PGI d5 (relative PGI release) [1, 4]: 4.554%
PGI d12 (relative PGI release) [1, 4]: -2.81%
Viability d12 (relative viability) [2, 6]: 23.9637%

CC[C@H](CO)NCCN[C@H](CC)CO [MMV687801]
PGI d5 (relative PGI release) [1, 4]: -2.724%
PGI d12 (relative PGI release) [1, 4]: 9.893%
Viability d12 (relative viability) [2, 6]: 117.919%

O=C(O)[C@H]1C2CCC(CC2)[C@@H]1Nc1nc(-c2c[nH]c3ncc(F)cc23)ncc1F [MMV1593516]
PGI d5 (relative PGI release) [1, 4]: 2.198%
PGI d12 (relative PGI release) [1, 4]: -18.5586%
Viability d12 (relative viability) [2, 6]: 121.454%

FC(F)(F)c1cc(C(F)(F)F)c2ccc3nc(-c4nnco4)cn3c2n1 [MMV690555]
PGI d5 (relative PGI release) [1, 4]: 0.9496%
PGI d12 (relative PGI release) [1, 4]: 0.5886%
Viability d12 (relative viability) [2, 6]: 300.676%

CCc1cc(O)c(Oc2ccc(C(N)=O)cc2F)cc1F [MMV1578564]
PGI d5 (relative PGI release) [1, 4]: 19.4124%
PGI d12 (relative PGI release) [1, 4]: -2.538%
Viability d12 (relative viability) [2, 6]: 125.644%

Fc1ccc2c(/C=C/c3cccnc3)c[nH]c2c1 [MMV1578889]
PGI d5 (relative PGI release) [1, 4]: -2.006%
PGI d12 (relative PGI release) [1, 4]: 1.559%
Viability d12 (relative viability) [2, 6]: 96.8566%

N#C/C(=C1/SC[C@@H](c2ccc(Cl)cc2Cl)S1)n1ccnc1 [MMV1782224]
PGI d5 (relative PGI release) [1, 4]: 12.0659%
PGI d12 (relative PGI release) [1, 4]: -22.8965%
Viability d12 (relative viability) ([2]; 10 µM): 41.9155%
